Legend:
[1] = Rate of dissolution in H2O at 25° C. of rebaudioside A polymorph and amorphous forms; type: physicochemical
Source text: The purification of rebaudioside A by crystallization as described above results in the formation of at least three different polymorphs: Form 1: a rebaudioside A hydrate; Form 2: an anhydrous rebaudioside A; Form 3: a rebaudioside A solvate. In addition to the at least three polymorph forms of rebaudioside A, the purification of rebaudioside A may result in the formation of an amorphous form of rebaudioside A, Form 4. The aqueous organic solution and temperature of the purification process influence the resulting polymorph and amorphous forms in the substantially pure rebaudioside A composition. FIGS. 1-5 are exemplary powder x-ray diffraction (XRPD) scans of the polymorph and amorphous forms of rebaudioside A: Form 1 (hydrate), Form 2 (anhydrate), Form 3A (methanol solvate), Form 3B (ethanol solvate), and Form 4 (amorphous), respectively.

[2] = type: physicochemical
Procedure: A solution of rebaudioside A (>97% pure by HPLC) was prepared in double distilled water (12.5 gm in 50 mL, 25% concentration) by stirring the mixture at 40° C. for 5 minutes. An amorphous form of rebaudioside A was formed by immediately using the clear solution for spray drying with the Lab-Plant spray drier SD-04 instrument (Lab-Plant Ltd., West Yorkshire, U.K.). The solution was fed through the feed pump into the nozzle atomizer which atomized it into a spray of droplets with the help of a constant flow of nitrogen/air. […] This dry powder (11-12 g, H2O 6.74%) was discharged continuously from the drying chamber and was collected in a bottle.

| Rate of dissolution in H2O at 25° C. ([1]; per 60 minutes) | Rate of dissolution in H2O at 25° C. ([1]; per 5 minutes) | solubility in water at room temperature [2] [%] | Substance |
| --- | --- | --- | --- |
| Very low (<0.2%/ %/60 minutes | – | – | rebaudioside A [Form 1] |
| – | Intermediate (<30%/ %/5 minutes | – | rebaudioside A [Form 2] |
| – | High (>30%/5 %/5 minutes | – | rebaudioside A [Form 3] |
| – | High (>35%/5 %/5 minutes | > 35.0 | rebaudioside A [Form 4] |
